{"source": "patent US6335443B1", "about": "“Chemical synthesis of exochelins” (Keystone Biomedical, Inc., priority 1998, dated 2002)", "key": {"ferri-Exochelin 758SM [1]": {"test_system": "ferri-Exochelin 758SM", "experiment": "Capacity to remove iron from Ferri-Exochelin 758SM in the same vial (772SM(R) vs 772SM(S))", "format": "binding", "conditions": "Table 3, 772SM(R), 772SM(S) and 758SM in the same vial", "experimental": "To further assess the relative affinities of the stereoisomers desferri-Exochelin 772SM(R) and 772SM(S) for iron, their capacity to remove iron from a different exochelin species in the same vial were compared.\nIn the experiment,15.6 μg of 1.1% iron-saturated synthetic Exochelin 772SM(R) and 17.4 μg of 1.0% iron-saturated synthetic Exochelin 772SM(S) was mixed with 13.5 μg of 100% iron-saturated native Exochelin 758SM."}, "ferri-Exochelin 758SM [2]": {"test_system": "ferri-Exochelin 758SM", "experiment": "Capacity to remove iron from a different Exochelin species (Ferri-Exochelin 758SM)", "format": "binding", "conditions": "for % Iron-Saturation 0 h / % of Calculated Iron-Saturation at Equilibrium 0 h / % of Calculated Iron-Saturation at Equilibrium 1 h / % Iron-Saturation 1 h: Table 1; for % Iron-Saturation 0 h / % Iron-Saturation 0 hour / % Iron-Saturation 1 hour / % Iron-Saturation 1 h: mixed with ferri-Exochelin 758SM", "experimental": "C. Capacity to Remove Iron from a Different Exochelin Species. To assess the affinity of the synthetic desferri-Exochelin 772SM(R) for iron, its capacity to remove iron from a different Exochelin species, ferri-Exochelin 758SM, was evaluated. The capacity of synthetic and native desferri-Exochelin 772SM(R) to remove iron from ferri-Exochelin 758SM was also evaluated and compared. Either native or synthetic desferri-Exochelin 772SM(R) were independently mixed with ferri-Exochelin 758SM. The amount of iron acquired in 1 hour by the desferri-Exochelins was assayed by subjecting the Exochelin to reverse-phase HPLC on a phenyl column, as described above, and the area under the 450 nm absorbance peak was measured. The amount of iron-Exochelin was then calculated using a conversion factor derived from assaying known amounts of ferri-Exochelin 772SM(R).\nC. Capacity to Remove Iron from a Different Exochelin Species. To assess the affinity of the synthetic desferri-Exochelin 772SM(S) for iron, its capacity to remove iron from a different exochelin species, ferri-Exochelin 758SM was evaluated. The capacity of synthetic desferri-Exochelin 772SM(S) and native desferri-Exochelin 772SM(R) to remove iron from ferri-Exochelin 758SM was also evaluated and compared. Either synthetic desferri-Exochelin 772SM(S) or native desferri-Exochelin 772SM(R) was mixed with ferri-Exochelin 758SM. The amount of iron acquired by the desferri-exochelins after 1 hour was assayed by subjecting the molecule to reverse-phase HPLC on a phenyl column, as described above, and the area under the 450 nm absorbance peak was measured. The amount of iron-exochelin was then calculated using a conversion factor derived from assaying known amounts of ferri-Exochelin 772SM(R) and ferri-Exochelin 772SM(S)."}, "[3]": {"molecular_target": "T1, 40% iron-saturated human transferrin (Homo sapiens, UniProt P02787)", "T1 sequence (P02787 20-698)": "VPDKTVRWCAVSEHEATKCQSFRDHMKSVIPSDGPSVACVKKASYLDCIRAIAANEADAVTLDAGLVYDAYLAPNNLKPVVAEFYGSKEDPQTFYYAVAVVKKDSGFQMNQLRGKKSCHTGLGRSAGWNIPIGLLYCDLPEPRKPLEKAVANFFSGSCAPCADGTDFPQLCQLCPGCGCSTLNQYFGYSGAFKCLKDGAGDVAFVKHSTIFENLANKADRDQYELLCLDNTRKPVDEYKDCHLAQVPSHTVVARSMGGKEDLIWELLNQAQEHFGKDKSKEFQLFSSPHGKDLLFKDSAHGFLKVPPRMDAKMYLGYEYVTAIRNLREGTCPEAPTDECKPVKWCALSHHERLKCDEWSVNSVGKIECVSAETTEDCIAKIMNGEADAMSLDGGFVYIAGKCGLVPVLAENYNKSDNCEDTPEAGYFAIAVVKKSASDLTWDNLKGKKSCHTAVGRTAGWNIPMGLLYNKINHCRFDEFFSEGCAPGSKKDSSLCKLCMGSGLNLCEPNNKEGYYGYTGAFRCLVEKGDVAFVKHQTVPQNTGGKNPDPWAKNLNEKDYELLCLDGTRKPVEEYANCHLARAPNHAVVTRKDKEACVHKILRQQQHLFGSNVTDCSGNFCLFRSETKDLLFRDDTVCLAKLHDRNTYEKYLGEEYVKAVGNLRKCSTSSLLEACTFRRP", "experiment": "Capacity to remove iron from 40% iron-saturated human transferrin", "format": "biochemical", "conditions": "Fe3+:desferri-Exochelin 10:1, PBS pH 7.4", "experimental": "(§1) A. 40% Iron-Saturated Human Transferrin. To assess the capacity of the 3 different desferri-Exochelins to remove iron from 40% iron-saturated human transferrin, each of them was incubated for 1, 3, and 24 hours with 40% iron-saturated transferrin such that the ratio of Fe^3+: desferri-Exochelin equaled 10:1. The incubation was carried out in PBS, pH 7.4. Afterwards, the Exochelin and transferrin were separated from each other by centrifugation through a 10,000 dalton cut-off filter. The transferrin (mass 76,000 daltons) was completely excluded by this filter whereas 85% of the Exochelin (mass<1,000) was recovered in the filtrate. To determine the total amount of exochelin recovered, the exochelin in the filtrate was saturated with a 20:1 molar excess of ferric ammonium citrate and subjected to reverse-phase HPLC as described above. To determine the amount of iron-saturated Exochelin in the filtrate at each time point, the filtrate was subjected to reverse-phase HPLC without the addition of iron. The % iron-saturation was calculated as follows: [formula]"}, "[4]": {"molecular_target": "holo-transferrin (92% iron-saturated human transferrin) (Homo sapiens, UniProt P02787)", "sequence (P02787 20-698)": "as above", "experiment": "Capacity to remove iron from holo-transferrin (92% iron-saturated human transferrin)", "format": "biochemical", "conditions": "Fe3+:desferri-Exochelin 10:1", "experimental": "as §1\nB. Holo-Transferrin (92% Iron-Saturated Human Transferrin). To assess the capacity of the 3 different desferri-Exochelins to remove iron from holo-transferrin (92% iron-saturated human transferring, each of them was incubated for 1, 3, and 24 h with 92% iron-saturated transferrin such that the ratio of Fe^3+: desferri-Exochelin equaled 10:1, as in the aforementioned study with 40% iron-saturated transferrin. The % iron-saturation of the Exochelins was assayed as above."}, "[5]": {"molecular_target": "human apotransferrin (<0.7% iron-saturated) (Homo sapiens, UniProt P02787)", "sequence (P02787 20-698)": "as above", "experiment": "Control incubation with human apotransferrin (<0.7% iron-saturated)", "format": "biochemical", "conditions": "apotransferrin 38 mg/ml", "experimental": "as §1\nC. Apotransferrin (<0.7% Iron-Saturated Human Transferrin). As a control, the three desferri-exochelins were incubated for 3 h and 24 h with human apotransferrin (<0.7% iron-saturated) at a concentration of 38 mg/ml, the same concentration of protein as in the study utilizing 92% iron-saturated transferrin in B above. None of the desferri-exochelins acquired appreciable amounts of iron (Table 6)."}, "[6]": {"molecular_target": "T1, 40% iron-saturated human transferrin", "experiment": "Capacity to remove iron from 40% iron-saturated human transferrin", "format": "biochemical", "conditions": "Fe3+:desferri-Exochelin 10:1, PBS pH 7.4", "remark": "listed apart in the source"}, "[7]": {"conditions": "listed as Native Desferri-Exochelin 772SM(R)"}, "[8]": {"conditions": "listed as native desferri-exochelin 772SM(R)"}, "[9]": {"conditions": "assuming comparable affinities for iron, 15.1 µg 772SM(R), Experiment I"}, "[10]": {"conditions": "assuming comparable affinities for iron, 15.8 µg 772SM(R), Experiment II"}}, "note": "Values joined by “and” are separate entries in the source; they are usually repeats but may differ in a detail not shown here. Identical values can stand only once."}
{"substance": "Exochelin 758SM [Native 758SM, reference compound]", "values": [{"measurement": "% Iron-Saturation 0 hour", "setting": "ferri-Exochelin 758SM [1]; 0 hour", "result": 100, "unit": "%"}, {"measurement": "% Iron-Saturation 1 hour", "setting": "ferri-Exochelin 758SM [1]; 1 hour", "result": 40.0, "unit": "%"}, {"measurement": "% Iron-Saturation 0 h", "setting": "ferri-Exochelin 758SM [2]", "result": 100, "unit": "%"}, {"measurement": "% Iron-Saturation 0 hour", "setting": "ferri-Exochelin 758SM [2]; Table 2, 0 hour", "result": 100, "unit": "%"}, {"measurement": "% Iron-Saturation 1 hour", "setting": "ferri-Exochelin 758SM [2]; Table 2, with native desferri-Exochelin 772SM(R)", "result": 61.7, "unit": "%"}, {"measurement": "% Iron-Saturation 1 hour", "setting": "ferri-Exochelin 758SM [2]; Table 2, with synthetic desferri-Exochelin 772SM(R)", "result": 55.9, "unit": "%"}, {"measurement": "% Iron-Saturation 1 hour", "setting": "ferri-Exochelin 758SM [2]; Table 2, with synthetic desferri-Exochelin 772SM(S)", "result": 54.1, "unit": "%"}]}
{"substance": "Exochelin 772SM(R) [Native 772SM(R), reference compound]", "values": [{"measurement": "Iron-Saturation 1 h", "setting": "[3]; 1 h", "result": 9.3, "unit": "%"}, {"measurement": "Iron-Saturation 3 h", "setting": "[3]; 3 h", "result": 13.8, "unit": "%"}, {"measurement": "Iron-Saturation 24 h", "setting": "[3]; [7]", "result": 34.0, "unit": "%"}, {"measurement": "Iron-Saturation 24 h", "setting": "[3]; [8]", "result": 34.0, "unit": "%"}, {"measurement": "Iron-Saturation 0 h", "setting": "[4]; 0 h", "result": 2.8, "unit": "%"}, {"measurement": "Iron-Saturation 1 h", "setting": "[4]; 1 h", "result": 11.6, "unit": "%"}, {"measurement": "Iron-Saturation 3 h", "setting": "[4]; 3 h", "result": 19.0, "unit": "%"}, {"measurement": "Iron-Saturation 24 h", "setting": "[4]; [7]", "result": 54.1, "unit": "%"}, {"measurement": "Iron-Saturation 24 h", "setting": "[4]; [8]", "result": 54.1, "unit": "%"}, {"measurement": "Iron-Saturation 0 h", "setting": "[5]; 0 h", "result": 2.8, "unit": "%"}, {"measurement": "Iron-Saturation 3 h", "setting": "[5]; 3 h", "result": 9.3, "unit": "%"}, {"measurement": "Iron-Saturation 24 h", "setting": "[5]; 24 h", "result": 6.8, "unit": "%"}, {"measurement": "% of Calculated Iron-Saturation at Equilibrium 0 h", "setting": "ferri-Exochelin 758SM [2]; [9]", "result": 6.8, "unit": "%"}, {"measurement": "% of Calculated Iron-Saturation at Equilibrium 0 h", "setting": "ferri-Exochelin 758SM [2]; [10]", "result": 5.0, "unit": "%"}, {"measurement": "% Iron-Saturation 0 h", "setting": "ferri-Exochelin 758SM [2]", "result": 2.8, "unit": "%"}, {"measurement": "% of Calculated Iron-Saturation at Equilibrium 1 h", "setting": "ferri-Exochelin 758SM [2]; [9]", "result": 85.8, "unit": "%"}, {"measurement": "% of Calculated Iron-Saturation at Equilibrium 1 h", "setting": "ferri-Exochelin 758SM [2]; [10]", "result": 81.6, "unit": "%"}, {"measurement": "% of Calculated Iron-Saturation at Equilibrium 1 h", "setting": "ferri-Exochelin 758SM [2]; assuming comparable affinities for iron, listed as native Exochelin 772SM(R)", "result": "85.8% and 81.6%"}, {"measurement": "% Iron-Saturation 1 h", "setting": "ferri-Exochelin 758SM [2]; 15.1 µg 772SM(R), Experiment I", "result": 46.4, "unit": "%"}, {"measurement": "% Iron-Saturation 1 h", "setting": "ferri-Exochelin 758SM [2]; 15.8 µg 772SM(R), Experiment II", "result": 45.6, "unit": "%"}, {"measurement": "% Iron-Saturation 1 h", "setting": "ferri-Exochelin 758SM [2]; listed as native Exochelin 772SM(R)", "result": "46.4% and 45.6%"}, {"measurement": "% of Calculated Iron-Saturation at Equilibrium 0 hour", "setting": "ferri-Exochelin 758SM [2]; Table 2, 0 hour, assuming comparable affinities for iron", "result": 5.4, "unit": "%"}, {"measurement": "% Iron-Saturation 0 hour", "setting": "ferri-Exochelin 758SM [2]; Table 2, 0 hour", "result": 2.8, "unit": "%"}, {"measurement": "% of Calculated Iron-Saturation at Equilibrium 1 hour", "setting": "ferri-Exochelin 758SM [2]; Table 2, assuming comparable affinities for iron", "result": 88.7, "unit": "%"}, {"measurement": "% of Calculated Iron-Saturation at Equilibrium 1 hour", "setting": "ferri-Exochelin 758SM [2]; Table 2, assuming comparable affinities for iron, listed as native Exochelin 772SM(R)", "result": 88.7, "unit": "%"}, {"measurement": "% Iron-Saturation 1 hour", "setting": "ferri-Exochelin 758SM [2]; Table 2", "result": 46.2, "unit": "%"}, {"measurement": "Iron-Saturation 0 h", "setting": "[6]", "result": 2.8, "unit": "%"}]}
